Source: ChEMBL document CHEMBL1201862, “PubChem BioAssay data set” (2004)
The source made the active and inactive calls.

What was measured:
[1] = biological target: Serine/threonine-protein kinase 3 (Homo sapiens, UniProt Q13188); type: functional;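 further: measured as one member of a kinome-wide kinase panel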
[2] = biological target: Tyrosine-protein kinase Lyn (Homo sapiens, UniProt P07948); type: functional;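 further: lyn as one member of a kinase panel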
[3] = biological target: Mitogen-activated protein kinase kinase kinase kinase 5 (Homo sapiens, UniProt Q9Y4K4); type: functional;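 further: measured as one member of a kinome-spanning kinase panel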
Mitogen-activated protein kinase kinase kinase kinase 5, sequence (Q9Y4K4 whole entry): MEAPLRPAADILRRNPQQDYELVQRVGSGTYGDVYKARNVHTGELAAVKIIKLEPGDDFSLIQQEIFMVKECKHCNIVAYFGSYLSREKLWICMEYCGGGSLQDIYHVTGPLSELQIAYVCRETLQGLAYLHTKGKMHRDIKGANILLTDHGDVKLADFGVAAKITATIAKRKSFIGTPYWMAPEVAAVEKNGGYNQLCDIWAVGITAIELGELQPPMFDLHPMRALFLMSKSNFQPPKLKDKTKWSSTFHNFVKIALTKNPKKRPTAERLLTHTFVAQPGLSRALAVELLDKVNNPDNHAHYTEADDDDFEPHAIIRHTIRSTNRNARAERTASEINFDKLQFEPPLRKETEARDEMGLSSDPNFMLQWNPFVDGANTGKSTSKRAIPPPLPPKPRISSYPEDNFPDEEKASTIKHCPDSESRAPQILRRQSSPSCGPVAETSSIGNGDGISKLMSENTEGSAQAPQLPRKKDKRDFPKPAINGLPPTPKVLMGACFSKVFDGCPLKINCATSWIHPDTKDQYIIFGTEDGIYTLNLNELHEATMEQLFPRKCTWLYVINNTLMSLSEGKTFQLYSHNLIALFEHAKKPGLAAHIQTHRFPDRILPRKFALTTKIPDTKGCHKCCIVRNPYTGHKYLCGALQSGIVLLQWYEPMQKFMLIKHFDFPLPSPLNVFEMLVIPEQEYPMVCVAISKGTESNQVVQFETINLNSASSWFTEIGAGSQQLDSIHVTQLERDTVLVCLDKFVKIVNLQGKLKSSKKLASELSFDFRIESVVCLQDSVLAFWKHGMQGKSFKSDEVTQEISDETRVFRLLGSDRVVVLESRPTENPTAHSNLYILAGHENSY

[4] = biological target: T1, Dual specificity protein phosphatase 6 (Rattus norvegicus, UniProt Q64346); assay: inhibition of rat DUSP6 enzyme activity – biochemical, in vitro, primary screen (AID 425)
T1 sequence (Q64346 whole entry): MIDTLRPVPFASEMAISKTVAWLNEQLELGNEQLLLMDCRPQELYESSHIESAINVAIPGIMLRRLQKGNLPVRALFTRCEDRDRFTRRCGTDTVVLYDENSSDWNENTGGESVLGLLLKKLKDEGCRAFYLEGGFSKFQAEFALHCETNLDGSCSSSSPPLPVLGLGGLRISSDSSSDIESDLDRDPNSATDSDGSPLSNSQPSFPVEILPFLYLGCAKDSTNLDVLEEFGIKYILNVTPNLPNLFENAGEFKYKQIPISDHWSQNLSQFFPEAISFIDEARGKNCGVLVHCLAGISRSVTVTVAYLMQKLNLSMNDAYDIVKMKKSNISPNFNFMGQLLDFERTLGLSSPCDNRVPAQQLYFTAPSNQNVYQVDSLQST

Phospholipase A2 = Phospholipase A2 (Homo sapiens, UniProt P04054); type: functional;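 further: confirmatory dose-response counterscreen on phospholipase A2, testing hits that came from an ultra-high-throughput screen for ATG4B inhibitors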
Phospholipase A2, sequence (P04054 whole entry): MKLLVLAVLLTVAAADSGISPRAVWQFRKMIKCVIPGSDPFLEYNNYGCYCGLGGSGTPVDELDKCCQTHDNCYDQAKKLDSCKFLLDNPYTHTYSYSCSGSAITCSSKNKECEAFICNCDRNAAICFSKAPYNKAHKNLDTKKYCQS

[5] = general cell-killing toxicity readout – plate reader, dry powder samples, cytotoxicity control for PAX8 inhibitor project, dose response (AID 743021); type: functional, cell-based
[6] = biological target: T2, Replicative DNA helicase DnaB (Mycobacterium tuberculosis, UniProt P9WMR3); assay: DnaB intein splicing inhibitors, dose response, biochemical, cell-free fluorescence (AID 449749); type: functional
T2 sequence (P9WMR3 whole entry): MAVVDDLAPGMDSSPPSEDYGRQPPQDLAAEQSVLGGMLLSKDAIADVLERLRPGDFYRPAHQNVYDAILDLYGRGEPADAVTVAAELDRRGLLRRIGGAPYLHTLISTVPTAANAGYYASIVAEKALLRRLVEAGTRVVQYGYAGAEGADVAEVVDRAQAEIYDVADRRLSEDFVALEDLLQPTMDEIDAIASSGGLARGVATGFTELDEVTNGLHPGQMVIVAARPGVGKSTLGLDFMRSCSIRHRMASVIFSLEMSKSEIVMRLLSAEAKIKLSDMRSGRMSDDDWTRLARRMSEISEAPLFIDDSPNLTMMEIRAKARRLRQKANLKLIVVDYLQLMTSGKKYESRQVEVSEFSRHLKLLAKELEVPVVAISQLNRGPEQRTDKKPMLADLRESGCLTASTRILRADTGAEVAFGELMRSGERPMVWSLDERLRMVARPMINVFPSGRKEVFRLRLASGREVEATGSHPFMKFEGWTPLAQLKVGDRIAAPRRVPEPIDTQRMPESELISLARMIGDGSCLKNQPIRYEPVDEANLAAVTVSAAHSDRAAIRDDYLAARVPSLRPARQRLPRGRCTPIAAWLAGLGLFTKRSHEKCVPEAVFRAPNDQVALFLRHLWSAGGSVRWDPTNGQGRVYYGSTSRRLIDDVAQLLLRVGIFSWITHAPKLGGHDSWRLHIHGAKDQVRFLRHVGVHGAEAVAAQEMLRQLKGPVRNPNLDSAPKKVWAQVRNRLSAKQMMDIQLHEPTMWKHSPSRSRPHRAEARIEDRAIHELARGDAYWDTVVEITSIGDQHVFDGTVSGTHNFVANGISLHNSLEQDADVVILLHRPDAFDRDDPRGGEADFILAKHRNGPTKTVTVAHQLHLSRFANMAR

Serine/threonine-protein kinase 3, sequence (Q13188 whole entry): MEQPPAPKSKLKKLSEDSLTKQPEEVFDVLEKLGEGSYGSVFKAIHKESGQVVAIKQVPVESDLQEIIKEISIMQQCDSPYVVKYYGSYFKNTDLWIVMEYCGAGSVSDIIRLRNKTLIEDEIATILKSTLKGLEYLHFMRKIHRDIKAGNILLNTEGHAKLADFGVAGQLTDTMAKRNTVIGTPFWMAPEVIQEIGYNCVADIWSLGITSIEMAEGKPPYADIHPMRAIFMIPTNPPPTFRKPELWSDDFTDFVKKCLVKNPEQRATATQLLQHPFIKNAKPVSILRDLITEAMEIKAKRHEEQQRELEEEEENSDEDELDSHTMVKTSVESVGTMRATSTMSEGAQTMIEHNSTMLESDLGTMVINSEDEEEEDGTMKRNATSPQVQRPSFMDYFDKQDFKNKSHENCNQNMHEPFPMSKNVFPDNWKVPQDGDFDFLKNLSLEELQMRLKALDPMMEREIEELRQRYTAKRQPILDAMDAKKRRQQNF
Tyrosine-protein kinase Lyn, sequence (P07948 whole entry): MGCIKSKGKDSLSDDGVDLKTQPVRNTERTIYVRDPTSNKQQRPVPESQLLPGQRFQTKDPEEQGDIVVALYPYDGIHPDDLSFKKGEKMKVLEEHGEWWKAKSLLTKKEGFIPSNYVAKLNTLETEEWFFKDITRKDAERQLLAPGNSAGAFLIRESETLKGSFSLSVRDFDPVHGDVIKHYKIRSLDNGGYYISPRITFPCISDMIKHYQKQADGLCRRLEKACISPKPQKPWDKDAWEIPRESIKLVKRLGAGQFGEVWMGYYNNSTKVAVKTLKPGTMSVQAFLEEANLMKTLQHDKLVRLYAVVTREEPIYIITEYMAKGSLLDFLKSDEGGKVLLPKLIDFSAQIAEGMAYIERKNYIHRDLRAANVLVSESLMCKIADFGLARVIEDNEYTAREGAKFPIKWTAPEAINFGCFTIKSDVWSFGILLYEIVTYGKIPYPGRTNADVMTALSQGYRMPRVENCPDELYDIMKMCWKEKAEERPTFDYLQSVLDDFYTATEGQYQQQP

Structure (SMILES) | Ki [1] | Ki [2] | Ki [3] | IC50 [4] | IC50 (Phospholipase A2) | AC50 [5] | AC50 [6]
COc1cc2c(cc1Nc1nc(Nc3cccc(F)c3C(N)=O)c3cc[nH]c3n1)N(C(=O)CN(C)C)CC2 | > 3.16 µM (inactive) | > 1.58 µM (inactive) | > 7.94 µM (inactive) |  |  |  | 
CCn1nc(/C=C/c2ccccc2)nc2c(=O)n(C)c(=O)nc1-2 |  |  |  | < 1.23 µM (not active) | > 80 µM (inactive) | 12.7 µM (active) | 0.487 µM (active)
